From paper PMC6151437, “Antibacterial Synthetic Peptides Derived from Bovine Lactoferricin Exhibit Cytotoxic Effect against MDA-MB-468 and MDA-MB-231 Breast Cancer Cell Lines” (Molecules : A Journal of Synthetic Chemistry and Natural …, 2017) come the findings set out here.

Assay in test [1]: not given
This is another data set of the same source.

Bridge positions count the residues as written; N and C are the ends. Square brackets hold non-standard residues; d marks the D form. Peptide text beside a SMILES is read from it. I, II: the chains in the order shown. Ahx = NCCCCCC(=O)O

`N=C(N)NCCC[C@H](NC(=O)[C@H](Cc1c[nH]c2ccccc12)NC(=O)[C@H](CCC(N)=O)NC(=O)[C@H](Cc1c[nH]c2ccccc12)NC(=O)[C@H](CCCNC(=N)N)NC(=O)[C@@H](N)CCCNC(=N)N)C(=O)NCCCC[C@H](NC(=O)[C@H](CCCNC(=N)N)NC(=O)[C@H](Cc1c[nH]c2ccccc12)NC(=O)[C@H](CCC(N)=O)NC(=O)[C@H](Cc1c[nH]c2ccccc12)NC(=O)[C@H](CCCNC(=N)N)NC(=O)[C@@H](N)CCCNC(=N)N)C(=O)NCCCCCC(=O)N[C@@H](CSSC[C@H](NC(=O)CCCCCNC(=O)[C@H](CCCCNC(=O)[C@H](CCCNC(=N)N)NC(=O)[C@H](Cc1c[nH]c2ccccc12)NC(=O)[C@H](CCC(N)=O)NC(=O)[C@H](Cc1c[nH]c2ccccc12)NC(=O)[C@H](CCCNC(=N)N)NC(=O)[C@@H](N)CCCNC(=N)N)NC(=O)[C@H](CCCNC(=N)N)NC(=O)[C@H](Cc1c[nH]c2ccccc12)NC(=O)[C@H](CCC(N)=O)NC(=O)[C@H](Cc1c[nH]c2ccccc12)NC(=O)[C@H](CCCNC(=N)N)NC(=O)[C@@H](N)CCCNC(=N)N)C(N)=O)C(N)=O` (I: H-RRWQWRK[Ahx]C-NH2 / II: H-RRWQWRK[Ahx]C-NH2 / III: H-RRWQWR / IV: H-RRWQWR; amide I:7-III:C, II:7-IV:C; disulfide I:9-II:9) returned a minimum concentration with maximum (optimal) cytotoxic effect of 22 µM.

Compound `CSCC[C@H](NC(=O)[C@H](CCCNC(=N)N)NC(=O)[C@H](Cc1c[nH]c2ccccc12)NC(=O)[C@H](CCC(N)=O)NC(=O)[C@H](Cc1c[nH]c2ccccc12)NC(=O)[C@H](CCCNC(=N)N)NC(=O)[C@@H](N)CCCNC(=N)N)C(=O)N[C@@H](CCCCN)C(=O)N[C@@H](CCCCN)C(=O)N[C@@H](CC(C)C)C(=O)NCC(=O)NCCCC[C@H](NC(=O)CNC(=O)[C@H](CC(C)C)NC(=O)[C@H](CCCCN)NC(=O)[C@H](CCCCN)NC(=O)[C@H](CCSC)NC(=O)[C@H](CCCNC(=N)N)NC(=O)[C@H](Cc1c[nH]c2ccccc12)NC(=O)[C@H](CCC(N)=O)NC(=O)[C@H](Cc1c[nH]c2ccccc12)NC(=O)[C@H](CCCNC(=N)N)NC(=O)[C@@H](N)CCCNC(=N)N)C(=O)NCCCCCC(N)=O` (I: H-RRWQWRMKKLGK[Ahx]-NH2 / II: H-RRWQWRMKKLG; amide I:12-II:C) yielded a concentration of maximum cytotoxic effect in test [1] of 30 µM.
